According to patent publication US20250243520A1, “PRODUCTION METHOD FOR L-CYCLIC AMINO ACIDS” (UBE CORPORATION, priority 2019, published 2025):
Where two headings read alike, the source gives them in different places.

Columns and labels:
[1] = test system: Lathyrus japonicus imino acid (imine) reductase LjP2CR, GST-fused, SEQ ID NO: 12 (LjP2CR: SEQ ID NO: 6); assay: Analysis of enzymatic catalytic activity: reduction of PipC2 with varied NADPH, absorbance at 340 nm (LjP2CR); type: biochemical
[2] = molecular target: T1, Pseudomonas putida PipC2 reductase dpkA (Pseudomonas putida, UniProt Q5FB93); assay: Literature kinetics of PipC2 reductase dpkA (Muramatsu et al., 2005); type: biochemical; conditions: Table 5; literature value; molecular weight 35954
[3] = molecular target: T1, Pseudomonas putida PipC2 reductase dpkA; parameters: NADP Vmax: unit not given here; conditions: cited from earlier work
[4] = test system: Morus alba imino acid (imine) reductase MaP2CR, GST-fused, SEQ ID NO: 10 (MaP2CR: SEQ ID NO: 4); assay: Analysis of enzymatic catalytic activity: reduction of PipC2 with varied NADPH, absorbance at 340 nm (MaP2CR); type: biochemical
[5] = Enzyme reaction with PipC2 enzyme synthesis solution and *NADPH; products analysed by LCMS and chiral HPLC; type: biochemical; conditions: 10 mM *NADPH, 30° C., 120 minutes
Protocol: An enzyme reaction was carried out using each enzyme solution (purified P2CR recombinant enzyme solution) obtained in Example 1. The reaction was carried out using a 1.5 mL Eppendorf tube as the reaction vessel, and using each enzyme reaction solution in a volume of 100 μL. Since PipC2 which serves as the substrate is not commercially available, one obtained from L-lysine by enzyme synthesis, using the aminotransferase MaALDI obtained in Reference Example 1 to be described later, was used.
The enzyme reaction was carried out using a shaking incubator (manufactured by AS ONE Corporation), at a reaction temperature of 30° C. with shaking at 1,000 rpm. The reaction time was set to 120 minutes. Heating was performed at a reaction temperature of 98° C. for five minutes to inactivate the enzyme, and the reaction was terminated. Subsequently, the reaction solution was centrifuged at 15,000 rpm at room temperature for 10 minutes, and the resulting supernatant was used as a PipC2 enzyme synthesis solution.
Thereafter, the reaction was carried out under the same conditions as the reaction using the enzyme MaALDI described above, to obtain an enzyme reaction product.
Each of the enzyme reaction products was analyzed by liquid chromatography-mass spectrometry (LCMS). First, each sample (enzyme reaction product) was subjected to a derivatization treatment. Using AccQ·Tag Ultra Derivatization Kit (manufactured by Waters Corporation), a mixture of each sample was prepared according to the composition shown in Table 3. The derivatizating reagent solution was added at last. After mixing, the mixture was incubated at 55° C. for 10 minutes.
Each sample which had been subjected to the derivatization treatment was diluted two-fold with pure water, and used as a sample for LCMS analysis.
When the activities of the enzyme reaction products were analyzed by LCMS analysis, it was confirmed that the products had the same retention time as that of L-PipA as the standard, and that novel peaks of the MS pattern were observed. Further, it was unable to detect PipA in the control. […]

[6] = Table 5, values determined by ANEMONA, GST-fused protein
[7] = Table 5, values determined by ANEMONA, GST-fused protein, read-out: NADP Km

T1 sequence (Q5FB93 whole entry): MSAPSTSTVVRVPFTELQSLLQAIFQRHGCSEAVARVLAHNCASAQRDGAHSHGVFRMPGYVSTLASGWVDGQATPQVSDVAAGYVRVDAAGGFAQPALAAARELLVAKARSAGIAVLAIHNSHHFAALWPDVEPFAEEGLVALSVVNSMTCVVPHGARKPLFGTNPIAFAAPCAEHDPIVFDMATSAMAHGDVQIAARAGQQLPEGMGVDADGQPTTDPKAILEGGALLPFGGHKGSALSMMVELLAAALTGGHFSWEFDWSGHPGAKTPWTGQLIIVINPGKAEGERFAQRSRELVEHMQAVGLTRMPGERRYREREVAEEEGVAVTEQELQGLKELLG

NC(=O)C1=CN([C@@H]2O[C@H](COP(=O)(O)OP(=O)(O)OC[C@H]3O[C@@H](n4cnc5c(N)ncnc54)[C@H](OP(=O)(O)O)[C@@H]3O)[C@@H](O)[C@H]2O)C=CC1 [NADPH, reduced nicotinamide adenine dinucleotide phosphate]
Vmax ([1]; Hanes-Woolf plot, NADPH 10-500 μM, Tris-HCl pH 7.2): 199.55 nmol/min/mg | Km ([1]; Hanes-Woolf plot, NADPH 10-500 μM, Tris-HCl pH 7.2, read-out: Km): 170 µM | Activity per one molecule of enzyme kcat ([1]; Table 5, GST-fused protein, molecular weight 63449): 0.198 s⁻¹ | NADP Vmax [1, 6]: 187 | Km [1, 7]: 155 µM | Vmax ([1]; nonlinear regression by ANEMONA, NADPH 10-500 μM, Tris-HCl pH 7.2): 187.3 nmol/min/mg | Km ([1]; nonlinear regression by ANEMONA, NADPH 10-500 μM, Tris-HCl pH 7.2, read-out: Km): 155 µM | Activity per one molecule of enzyme kcat [2]: 0.132 s⁻¹ | Vmax ([3]; Muramatsu et al. 2005): 220 nmol/min/mg | Km ([3]; Muramatsu et al. 2005, read-out: Km): 140 µM | NADP Vmax ([3]; Table 5, literature value): 220 | Km ([3]; Table 5, literature value, read-out: NADP Km): 140 µM | Vmax ([4]; Hanes-Woolf plot, NADPH 0.5-80 μM, Tris-HCl pH 7.2): 24.00 nmol/min/mg | Km ([4]; Hanes-Woolf plot, NADPH 0.5-80 μM, Tris-HCl pH 7.2, read-out: Km): 6.16 µM | Activity per one molecule of enzyme kcat ([4]; Table 5, GST-fused protein, molecular weight 61792): 0.0217 s⁻¹ | NADP Vmax [4, 6]: 21 | Km [4, 7]: 3.6 µM | Vmax ([4]; nonlinear regression by ANEMONA, NADPH 0.5-80 μM, Tris-HCl pH 7.2): 21.2 nmol/min/mg | Km ([4]; nonlinear regression by ANEMONA, NADPH 0.5-80 μM, Tris-HCl pH 7.2, read-out: Km): 3.57 µM

B1: MaP2CR: imino acid reductase derived from Morus alba, SEQ ID NO: 4; GST-fused form SEQ ID NO: 10 (protein, listed as Morus alba)
chain: MASTTTAITSPIFITTQSFHTILSRQTLMDHFHSSLPTVSASLSTPLRQNHAVSPTSSLLLMPSWSTSPSLPYIGVKLVTYFPQSSTLSLPGIHASYVLFSSATGQTLASMDGTALTLFRTSCVSGLASRILARDDSKVLVMIGAGALAPHLIKAHLTARPGLERVVIWNRTVEKARNLAEQLQQSSGLDGVCFESNGCLEEVVGMGDIVSCATNSEAPLVKGQKLKPGAHLDLVGSFKHSMRECDDEAIQRGRIFVDNEAALVEAGELVGAFERGVITKEDIGGNLVELIMGEKVGRRDSEEVTVFKSVGSAAVDILAAQLVYETYLQQNN
ability to reduce PipC2 to convert to PipA (LCMS of enzyme reaction products) [5]: have the ability to reduce PipC2 to convert to PipA

B2: LjP2CR: imino acid reductase derived from Lathyrus japonicus, SEQ ID NO: 6; GST-fused form SEQ ID NO: 12 (protein, listed as Lathyrus japonicus)
chain: MASANKDQKTTNTVSSSSSSSSPIFISTENLQTILTHQTLMKHIDSNLPKVSTFLQTPIRQHYSLSPSSSLLLMPSWSSSSSFPYVGVKLVTHFPQNSSINLPGVQGSYVLFNSTTGQTLASMDSTELTLYRTSCVSGLASRYLSRDDSEVLVMVGAGPLAPHLIRAHFSARPSLRKVLIWNRTVEKAEALAKNLRESDEFSLSGLSFEGCGCLNEVVGLGDIVSCATNSEMALVKGERLKVGAHLDLVGSFKPSMKECDDEALKRGKVFVDNEAALVEAGELVGAFERGVIKEDEIEANLVELIRGDKVGRRSSEEITVFKSVGSAVVDMLAAQFVYESYIGK
ability to reduce PipC2 to convert to PipA (LCMS of enzyme reaction products) [5]: have the ability to reduce PipC2 to convert to PipA

B3: AtP2CR: imino acid reductase derived from Arabidopsis thaliana, SEQ ID NO: 2; GST-fused form SEQ ID NO: 8 (protein, listed as Arabidopsis thaliana)
chain: MAALPVFIPAESFPSILSHETLINHFRTNLPKHSSTITSPVRQNYTVSSPSSLLLMPSWSSSSSLPYMGVKLVTYFPHNSSQNLPGIHGSYTLFSSTTGQTLATMDGTVLTLYRTSSVSGLGSKILARDDSQVLIMVGSGALAPHLIKSHLAARPSLRRVIIWNRTPQRAQELAETLSKDPQHKEISFDSHDSLDQIIPLGDIISCATNSTVPLVKGEFLKPGTHLDLAGSFSHEMKECDDNAIQRGSVFVDNDTAMIEAGELAGAFERGVIKREDICGNLVELIKGDKEGRKSSTDITVFKSVGSGTVDLLTAQLVHETYLSRC
ability to reduce PipC2 to convert to PipA (LCMS of enzyme reaction products) [5]: have the ability to reduce PipC2 to convert to PipA
